# Paper PMC9481151, “Discovery of new symmetrical and asymmetrical nitrile-containing 1,4-dihydropyridine derivatives as dual kinases and P-glycoprotein inhibitors: synthesis, in vitro assays, and in silico studies” (Journal of Enzyme Inhibition and Medicinal Chemistry, 2022)
# Key:
# ACHN = assay: NCI single dose (10 µM) SRB screen; format: cell-based, human; conditions: renal cancer, 48 h
# HCT-116 = assay: NCI single dose (10 µM) SRB screen; format: cell-based, human; conditions: colon cancer, 48 h
# SW-620 = assay: NCI single dose (10 µM) SRB screen; format: cell-based, human; conditions: colon cancer, 48 h
# TK-10 = assay: NCI single dose (10 µM) SRB screen; format: cell-based, human; conditions: renal cancer, 48 h
# RPMI-8226 = assay: NCI single dose (10 µM) SRB screen; format: cell-based, human; conditions: leukaemia, 48 h
# SR = assay: NCI single dose (10 µM) SRB screen; format: cell-based, human; conditions: leukaemia, 48 h
# MDA-MB-435 = assay: NCI single dose (10 µM) SRB screen; format: cell-based, human; conditions: melanoma, 48 h
# OVCAR-8 = assay: NCI single dose (10 µM) SRB screen; format: cell-based, human; conditions: ovarian cancer, 48 h
# Candida albicans = assay: Agar well diffusion method; conditions: relative to clotrimazole
# MALME-3M = assay: NCI single dose (10 µM) SRB screen; format: cell-based, human; conditions: melanoma, 48 h
# K-562 = assay: NCI single dose (10 µM) SRB screen; format: cell-based, human; conditions: leukaemia, 48 h
# NCI-H322M = assay: NCI single dose (10 µM) SRB screen; format: cell-based; conditions: non-small cell lung cancer, 48 h
# COLO 205 = assay: NCI single dose (10 µM) SRB screen; format: cell-based, human; conditions: colon cancer, 48 h
# HOP-92 = assay: NCI single dose (10 µM) SRB screen; format: cell-based, human; conditions: non-small cell lung cancer, 48 h
# SF-539 = assay: NCI single dose (10 µM) SRB screen; format: cell-based, human; conditions: CNS cancer, 48 h
# Aspergillus flavus = assay: Agar well diffusion method
# SNB-19 = assay: NCI single dose (10 µM) SRB screen; format: cell-based, human; conditions: CNS cancer, 48 h
# Staphylococcus aureus = assay: Agar well diffusion method
# UO-31 = assay: NCI single dose (10 µM) SRB screen; format: cell-based, human; conditions: renal cancer, 48 h
# KM12 = assay: NCI single dose (10 µM) SRB screen; format: cell-based, human; conditions: colon cancer, 48 h
# SK-OV-3 = assay: NCI single dose (10 µM) SRB screen; format: cell-based, human; conditions: ovarian cancer, 48 h
# A549/ATCC = assay: NCI single dose (10 µM) SRB screen; format: cell-based, human; conditions: non-small cell lung cancer, 48 h
# PC-3 = assay: NCI single dose (10 µM) SRB screen; format: cell-based, human; conditions: prostate cancer, 48 h
# MCF7 = assay: NCI single dose (10 µM) SRB screen; format: cell-based, human; conditions: breast cancer, 48 h
# M14 = assay: NCI single dose (10 µM) SRB screen; format: cell-based, human; conditions: melanoma, 48 h
# CCRF-CEM = assay: NCI single dose (10 µM) SRB screen; format: cell-based, human; conditions: leukaemia, 48 h
# EKVX = assay: NCI single dose (10 µM) SRB screen; format: cell-based, human; conditions: non-small cell lung cancer, 48 h
# LOX IMVI = assay: NCI single dose (10 µM) SRB screen; format: cell-based, human; conditions: melanoma, 48 h
# RXF 393 = assay: NCI single dose (10 µM) SRB screen; format: cell-based, human; conditions: renal cancer, 48 h
# NCI 60 cancer cell lines = assay: NCI single dose (10 µM) SRB screen, mean over panel; format: cell-based, human; conditions: mean over 60 cell lines, 48 h
# T-47D = assay: NCI single dose (10 µM) SRB screen; format: cell-based, human; conditions: breast cancer, 48 h
# NCI-H23 = assay: NCI single dose (10 µM) SRB screen; format: cell-based, human; conditions: non-small cell lung cancer, 48 h
# BT-549 = assay: NCI single dose (10 µM) SRB screen; format: cell-based, human; conditions: breast cancer, 48 h
# 786-0 = assay: NCI single dose (10 µM) SRB screen; format: cell-based, human; conditions: renal cancer, 48 h
# SK-MEL-28 = assay: NCI single dose (10 µM) SRB screen; format: cell-based, human; conditions: melanoma, 48 h
# HOP-62 = assay: NCI single dose (10 µM) SRB screen; format: cell-based, human; conditions: non-small cell lung cancer, 48 h
# HCT-15 = assay: NCI single dose (10 µM) SRB screen; format: cell-based, human; conditions: colon cancer, 48 h
# CAKI-1 = assay: NCI single dose (10 µM) SRB screen; format: cell-based, human; conditions: renal cancer, 48 h
# MOLT-4 = assay: NCI single dose (10 µM) SRB screen; format: cell-based, human; conditions: leukaemia, 48 h
# SF-268 = assay: NCI single dose (10 µM) SRB screen; format: cell-based, human; conditions: CNS cancer, 48 h
# Escherichia coli = assay: Agar well diffusion method; conditions: relative to ciprofloxacin
# Pseudomonas aeruginosa = assay: Agar well diffusion method; conditions: relative to ciprofloxacin
# HS578T = assay: NCI single dose (10 µM) SRB screen; format: cell-based, human; conditions: breast cancer, 48 h
# SK-MEL-2 = assay: NCI single dose (10 µM) SRB screen; format: cell-based, human; conditions: melanoma, 48 h
# MDA-MB-231 = assay: NCI single dose (10 µM) SRB screen; format: cell-based, human; conditions: breast cancer, 48 h
# NCI/ADR-RES = assay: NCI single dose (10 µM) SRB screen; format: cell-based, human; conditions: ovarian cancer, 48 h
# HT29 = assay: NCI single dose (10 µM) SRB screen; format: cell-based, human; conditions: colon cancer, 48 h
# OVCAR-5 = assay: NCI single dose (10 µM) SRB screen; format: cell-based, human; conditions: ovarian cancer, 48 h
# OVCAR-3 = assay: NCI single dose (10 µM) SRB screen; format: cell-based, human; conditions: ovarian cancer, 48 h
# SNB-75 = assay: NCI single dose (10 µM) SRB screen; format: cell-based, human; conditions: CNS cancer, 48 h
# OVCAR-4 = assay: NCI single dose (10 µM) SRB screen; format: cell-based, human; conditions: ovarian cancer, 48 h
# DU-145 = assay: NCI single dose (10 µM) SRB screen; format: cell-based, human; conditions: prostate cancer, 48 h
# NCI-H522 = assay: NCI single dose (10 µM) SRB screen; format: cell-based, human; conditions: non-small cell lung cancer, 48 h
# A498 = assay: NCI single dose (10 µM) SRB screen; format: cell-based, human; conditions: renal cancer, 48 h
# SK-MEL-5 = assay: NCI single dose (10 µM) SRB screen; format: cell-based, human; conditions: melanoma, 48 h
# NCI-H460 = assay: NCI single dose (10 µM) SRB screen; format: cell-based, human; conditions: non-small cell lung cancer, 48 h
# Bacillus subtilis = assay: Agar well diffusion method; conditions: relative to ciprofloxacin
# IGROV1 = assay: NCI single dose (10 µM) SRB screen; format: cell-based, human; conditions: ovarian cancer, 48 h
# SF-295 = assay: NCI single dose (10 µM) SRB screen; format: cell-based, human; conditions: CNS cancer, 48 h
# UACC-257 = assay: NCI single dose (10 µM) SRB screen; format: cell-based, human; conditions: melanoma, 48 h
# NCI-H226 = assay: NCI single dose (10 µM) SRB screen; format: cell-based, human; conditions: non-small cell lung cancer, 48 h
# HL-60(TB) = assay: NCI single dose (10 µM) SRB screen; format: cell-based, human; conditions: leukaemia, 48 h
# HCC-2998 = assay: NCI single dose (10 µM) SRB screen; format: cell-based, human; conditions: colon cancer, 48 h
# UACC-62 = assay: NCI single dose (10 µM) SRB screen; format: cell-based, human; conditions: melanoma, 48 h
# SN12C = assay: NCI single dose (10 µM) SRB screen; format: cell-based, human; conditions: renal cancer, 48 h
# MDA-MB-468 = assay: NCI single dose (10 µM) SRB screen; format: cell-based, human; conditions: breast cancer, 48 h
# U251 = assay: NCI single dose (10 µM) SRB screen; format: cell-based, human; conditions: CNS cancer, 48 h
substance,measurement,setting,value
"Diethyl 4-(3-cyanophenyl)-2,6-dipropyl-1,4-dihydropyridine-3,5-dicarboxylate [Compound 1h]",GI% ACHN,ACHN,– (Only GI% ≥ 10 are shown)
same,GI% HCT-116,HCT-116,30%
same,GI% SW-620,SW-620,– (Only GI% ≥ 10 are shown)
same,GI% TK-10,TK-10,– (Only GI% ≥ 10 are shown)
same,GI% RPMI-8226,RPMI-8226,34%
same,GI% SR,SR,32%
same,GI% MDA-MB-435,MDA-MB-435,– (Only GI% ≥ 10 are shown)
same,GI% OVCAR-8,OVCAR-8,– (Only GI% ≥ 10 are shown)
same,"% activity index, C. albicans",Candida albicans,– (Values below 25 are of limited value and not shown as they refer either to inactive or non-diffusing compounds)
same,GI% MALME-3M,MALME-3M,– (Only GI% ≥ 10 are shown)
same,GI% K-562,K-562,31%
same,GI% NCI-H322M,NCI-H322M,– (Only GI% ≥ 10 are shown)
same,GI% COLO 205,COLO 205,– (Only GI% ≥ 10 are shown)
same,GI% HOP-92,HOP-92,29%
same,GI% SF-539,SF-539,14%
same,"Diameter of inhibition zone, A. flavus","Aspergillus flavus; 1 mg/mL in DMSO, 24 h, 36 °C",8 mm
same,"% activity index, A. flavus",Aspergillus flavus; relative to clotrimazole,32%
same,GI% SNB-19,SNB-19,– (Only GI% ≥ 10 are shown)
same,"Diameter of inhibition zone, S. aureus","Staphylococcus aureus; 1 mg/mL in DMSO, 24 h, 36 °C",7 mm
same,"% activity index, S. aureus",Staphylococcus aureus; relative to ciprofloxacin,29.2%
same,GI% UO-31,UO-31,19%
same,GI% KM12,KM12,– (Only GI% ≥ 10 are shown)
same,GI% SK-OV-3,SK-OV-3,– (Only GI% ≥ 10 are shown)
same,GI% A549/ATCC,A549/ATCC,21%
same,GI% PC-3,PC-3,47%
same,GI% MCF7,MCF7,25%
same,GI% M14,M14,– (Only GI% ≥ 10 are shown)
same,GI% CCRF-CEM,CCRF-CEM,24%
same,GI% EKVX,EKVX,21%
same,GI% LOX IMVI,LOX IMVI,– (Only GI% ≥ 10 are shown)
same,GI% RXF 393,RXF 393,18%
same,Mean GI%,NCI 60 cancer cell lines,14%
same,GI% T-47D,T-47D,32%
same,GI% NCI-H23,NCI-H23,– (Only GI% ≥ 10 are shown)
same,GI% BT-549,BT-549,14%
same,GI% 786-0,786-0,16%
same,GI% SK-MEL-28,SK-MEL-28,– (Only GI% ≥ 10 are shown)
same,GI% HOP-62,HOP-62,– (Only GI% ≥ 10 are shown)
same,GI% HCT-15,HCT-15,17%
same,GI% CAKI-1,CAKI-1,30%
same,GI% MOLT-4,MOLT-4,38%
same,GI% SF-268,SF-268,22%
same,"% activity index, E. coli",Escherichia coli,– (Values below 25 are of limited value and not shown as they refer either to inactive or non-diffusing compounds)
same,"% activity index, P. aeruginosa",Pseudomonas aeruginosa,– (Values below 25 are of limited value and not shown as they refer either to inactive or non-diffusing compounds)
same,GI% HS578T,HS578T,18%
same,GI% SK-MEL-2,SK-MEL-2,– (Only GI% ≥ 10 are shown)
same,GI% MDA-MB-231,MDA-MB-231,– (Only GI% ≥ 10 are shown)
same,GI% NCI/ADR-RES,NCI/ADR-RES,18%
same,GI% HT29,HT29,12%
same,GI% OVCAR-5,OVCAR-5,– (Only GI% ≥ 10 are shown)
same,GI% OVCAR-3,OVCAR-3,– (Only GI% ≥ 10 are shown)
same,GI% SNB-75,SNB-75,42%
same,GI% OVCAR-4,OVCAR-4,32%
same,GI% DU-145,DU-145,– (Only GI% ≥ 10 are shown)
same,GI% NCI-H522,NCI-H522,20%
same,GI% A498,A498,18%
same,GI% SK-MEL-5,SK-MEL-5,31%
same,GI% NCI-H460,NCI-H460,– (Only GI% ≥ 10 are shown)
same,"% activity index, B. subtilis",Bacillus subtilis,– (Values below 25 are of limited value and not shown as they refer either to inactive or non-diffusing compounds)
same,GI% IGROV1,IGROV1,10%
same,GI% SF-295,SF-295,11%
same,GI% UACC-257,UACC-257,– (Only GI% ≥ 10 are shown)
same,GI% NCI-H226,NCI-H226,26%
same,GI% HL-60(TB),HL-60(TB),– (Only GI% ≥ 10 are shown)
same,GI% HCC-2998,HCC-2998,– (Only GI% ≥ 10 are shown)
same,GI% UACC-62,UACC-62,19%
same,GI% SN12C,SN12C,– (Only GI% ≥ 10 are shown)
same,GI% MDA-MB-468,MDA-MB-468,20%
same,GI% U251,U251,– (Only GI% ≥ 10 are shown)
